# Source: patent US9029376B2, “Small molecule inhibitors for the treatment or prevention of dengue virus infection” (Siga Technologies, Inc., priority 2008, dated 2015)
# Tested on: Dengue-2 (Strain New Guinea C)
# Test: Dengue-2 viral yield assay in Vero cells
# Format: cell-based
# Conditions: Dengue virus, Vero, 48 h, read-out: Activity (anti-dengue 2 viral activity, EC50)
# Experimental: Compounds that were active in the primary screen were tested for activity in viral yield assays. […] Vero cells in 12-well plates were infected with dengue-2 virus at a multiplicity of infection (MOI) of 0.1, treated with compound (or DMSO as a control), incubated at 37° C., harvested 48 hours post infection and titered on Vero cells as described above. The EC50 was calculated through ExcelFit. Those compounds with activity below 1 μM are indicated with “A”, those with activity between 1 and 10 μM are indicated with “B”, and those with activity between 10 and 25 μM with “C”.
row,SMILES,EC50 [µM]
1,"NC(=O)C1CCN(C(=O)CSc2nc3ccccc3s2)CC1 [Compound 66, 1-[2-(Benzothiazol-2-ylsulfanyl)-acetyl]-piperidine-4-carboxylic acid amide]",> 25
2,"NC(=O)C1CCN(C(=O)CSc2nc3ccccc3[nH]2)CC1 [Compound 68, 1-[2-(1H-Benzoimidazol-2-ylsulfanyl)-acetyl]-piperidine-4-carboxylic acid amide]",> 25
3,"CCn1c(SCC(=O)N2CCC(C(N)=O)(N3CCCCC3)CC2)nnc1-c1ccccc1 [Compound 69, 1′-[2-(4-Ethyl-5-phenyl-4H-[1,2,4]triazol-3-ylsulfanyl)-acetyl]-[1,4′]bipiperidinyl-4′-carboxylic acid amide]",> 25
4,"NC(=O)C1(N2CCCCC2)CCN(C(=O)CSc2nc3ccccc3[nH]2)CC1 [Compound 70, 1′-[2-(1H-Benzoimidazol-2-ylsulfanyl)-acetyl]-[1,4′]bipiperidinyl-4′-carboxylic acid amide]",> 25
5,"O=C(CSc1nc2cc(Cl)ccc2o1)N1CCOCC1 [Compound 74, 2-(5-Chloro-benzooxazol-2-ylsulfanyl)-1-morpholin-4-yl-ethanone]",> 25
6,"CCCC(=O)Nc1ccc2nc(SCC(=O)N3CCN(c4ccccc4)CC3)sc2c1 [Compound 75, N-{2-[2-oxo-2-(4-phenyl-piperazin-1-yl)-ethylsulfanyl]-benzothiazol-6-yl}-butyramide]",> 25
7,"O=C(CSc1nc2ccccc2o1)N1CCN(c2ccccc2)CC1 [Compound 76, 2-(Benzooxazol-2-ylsulfanyl)-1-(4-phenyl-piperazin-1-yl)-ethanone]",> 25
8,"O=C(CSc1nc2ccccc2o1)N1CCN(c2ccc(Cl)cc2)CC1 [Compound 80, 2-(Benzooxazol-2-ylsulfanyl)-1-[4-(4-chloro-phenyl)-piperazin-1-yl]-ethanone]",> 25

# Same assay, conditions: Dengue virus; Dengue-2 strain New Guinea C, Vero cells, MOI 0.1, harvested 48 hours post infection, viral yield; read-out: Activity (anti-dengue 2 viral activity, EC50)
row,SMILES,EC50 [µM]
1,"COc1ccc(C(=O)Nc2ccc3nc(SCC(=O)N4CCOCC4)sc3c2)cc1OC [Compound 64, 3,4-Dimethoxy-N-[2-(2-morpholin-4-yl-2-oxo-ethylsulfanyl)-benzothiazol-6-yl]-benzamide]",> 25
2,"O=C(Nc1ccc2nc(SCC(=O)N3CCCC3)sc2c1)c1ccccc1Br [Compound 65, 2-Bromo-N-[2-(2-oxo-2-pyrrolidin-1-yl-ethylsulfanyl)-benzothiazol-6-yl]-benzamide]",> 25
3,"NC(=O)C1CCN(C(=O)CSc2nc3ccccc3o2)CC1 [Compound 67, 1-[2-(Benzooxazol-2-ylsulfanyl)-acetyl]-piperidine-4-carboxylic acid amide]",> 25
4,"O=C(CSc1nc2ccccc2s1)N1CCN(c2ccc(F)cc2)CC1 [Compound 71, 2-(Benzothiazol-2-ylsulfanyl)-1-[4-(4-fluoro-phenyl)-piperazin-1-yl]-ethanone]",> 25
5,"O=C(CSc1nc2ccccc2s1)N1CCN(C(c2ccccc2)c2ccccc2)CC1 [Compound 72, 1-(4-Benzhydryl-piperazin-1-yl)-2-(benzothiazol-2-ylsulfanyl)-ethanone]",> 25
6,"O=C(CSc1nc2ccc([N+](=O)[O-])cc2s1)N1CCN(c2cccc(Cl)c2)CC1 [Compound 73, 1-[4-(3-Chloro-phenyl)-piperazin-1-yl]-2-(6-nitro-benzothiazol-2-ylsulfanyl)-ethanone]",> 25
7,"Nc1ccc2nc(SCC(=O)N3CCN(c4ccc(Cl)cc4)CC3)sc2c1 [Compound 77, 2-(6-Amino-benzothiazol-2-ylsulfanyl)-1-[4-(4-chloro-phenyl)-piperazin-1-yl]-ethanone]",> 25
8,"Cc1ccc(-c2nnc(N3CCN(C(=O)CSc4nc5ccccc5o4)CC3)c3ccccc23)cc1 [Compound 78, 2-(Benzooxazol-2-ylsulfanyl)-1-[4-(4-p-tolyl-phthalazin-1-yl)-piperazin-1-yl]-ethanone]",> 25
9,"Cc1cccc(C)c1NC(=O)Cn1c(SCC(N)=O)nc2ccccc21 [Compound 79, 2-{1-[(2,6-Dimethyl-phenylcarbamoyl)-methyl]-1H-benzoimidazol-2-ylsulfanyl}-acetamide]",> 25
